US9598440B2, “Inhibitors of IRAK4 activity” (MERCK SHARP & DOHME CORP., priority 2012, dated 2017)

Biological target: IRAK4 (Homo sapiens (Human), UniProt Q9NWZ3)
Assay: Determination of IRAK4 kinase activity (IMAP fluorescence polarization, phosphorylation of fluorescent peptide substrate)
Assay type: biochemical
Settings: 0.5 nM GST tagged IRAK4, 100 nM peptide substrate RP7030, 100 μM ATP, 30 minutes at 25° C.
Experimental: The kinase activity of IRAK4 is determined by its ability to catalyze the phosphorylation of a fluorescent polypeptide substrate. The extent of phosphorylation is measured using IMAP technology (Molecular Devices) where the phosphorylated fluorescent substrate binds to the large M(III)-based nanoparticles which reduces the rotational speed of the substrate and thus increases its fluorescent polarization (FP).
Procedure: A 20 μl reaction mixture contains 10 mM TriHCl, pH 7.2, 0.5 nM GST tagged IRAK4 (SignalChem), 100 nM fluorescent peptide substrate (RP7030, Molecular Devices), 100 μM ATP, 1 mM DTT, 1 mM MgCl2, and 0.01% Tween 20. The reaction is initiated by the addition of ATP. After incubation for 30 minutes at 25° C., 60 μl of Progressive IMAP Reagent (Molecular Devices) is added to stop the reaction. Change in RP7030's FP is determined by a FP reader (Analyst HT, LJL BioSystems). Analytical LCMS Conditions: • Condition A: Phenomenex Luna C18 (4.6×250 mm), 95:5 to 5:95 water:MeCN (0.05% TFA), over 10 min, hold 6 min. • Condition B: Agilent SBC (3.0×50 mm), solvent A: H20-0.1% TFA; • solvent B: ACN-0.1% TFA; GRADIENT TABLE: 0 min:10% B, 0.3 min: 10% B, 1.5 min: 95% B, 2.70 min: 95% B, 2.76 min: 10% B, stop time 3.60 min.

Sequence of IRAK4 (Q9NWZ3 whole entry): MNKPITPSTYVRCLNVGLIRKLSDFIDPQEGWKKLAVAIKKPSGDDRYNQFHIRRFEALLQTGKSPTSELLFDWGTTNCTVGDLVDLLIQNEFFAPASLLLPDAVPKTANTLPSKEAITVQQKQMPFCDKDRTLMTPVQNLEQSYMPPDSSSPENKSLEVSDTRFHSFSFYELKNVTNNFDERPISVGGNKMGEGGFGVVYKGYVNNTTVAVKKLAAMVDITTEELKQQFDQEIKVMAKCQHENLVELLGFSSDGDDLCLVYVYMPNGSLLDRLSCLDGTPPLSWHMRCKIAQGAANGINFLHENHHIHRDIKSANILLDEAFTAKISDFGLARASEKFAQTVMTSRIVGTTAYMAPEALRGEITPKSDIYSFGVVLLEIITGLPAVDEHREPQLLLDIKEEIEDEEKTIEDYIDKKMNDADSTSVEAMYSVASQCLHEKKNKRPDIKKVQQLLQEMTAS

Row | Structure (SMILES) | IC50 [nM]
1 | CN1CCCC(Nc2ncc(-c3nc4ccccc4s3)c(N[C@@H]3C[C@H](CO)[C@@H](O)[C@H]3O)n2)C1 (mixture of isomers) [Example 32, (1R,2S,3R,5R)-3-((5-(benzo[d]thiazol-2-yl)-2-(((RS)-1-methylpiperidin-3-yl)amino)pyrimidin-4-yl)amino)-5-(hydroxymethyl)cyclopentane-1,2-diol] | 934
2 | OC[C@H]1C[C@@H](Nc2nc(NC3CCCNC3)ncc2-c2nc3ccccc3s2)[C@H](O)[C@@H]1O (mixture of isomers) [Example 47, (1R,2S,3R,5R)-3-((5-(benzo[d]thiazol-2-yl)-2-((RS)-piperidin-3-ylamino)pyrimidin-4-yl)amino)-5-(hydroxymethyl)cyclopentane-1,2-diol] | 3270
3 | OC[C@H]1C[C@@H](Nc2nc(NC3CCOC3)ncc2-c2nc3ccccc3s2)[C@H](O)[C@@H]1O (mixture of isomers) [Example 48, (1R,2S,3R,5R)-3-((5-(benzo[d]thiazol-2-yl)-2-(((RS)-tetrahydrofuran-3-yl)amino)pyrimidin-4-yl)amino)-5-(hydroxymethyl)cyclopentane-1,2-diol] | 1580
4 | OC[C@H]1C[C@@H](Nc2nc(NC3CCCOC3)ncc2-c2nc3ccccc3s2)[C@H](O)[C@@H]1O (mixture of isomers) [Example 49, (1R,2S,3R,5R)-3-((5-(benzo[d]thiazol-2-yl)-2-(((RS)-tetrahydro-2H-pyran-3-yl)amino)pyrimidin-4-yl)amino)-5-(hydroxymethyl)cyclopentane-1,2-diol] | 1470
5 | OC[C@H]1C[C@@H](Nc2nc(NC3CCNC3)ncc2-c2nc3ccccc3s2)[C@H](O)[C@@H]1O (mixture of isomers) [Example 51, (1R,2S,3R,5R)-3-((5-(benzo[d]thiazol-2-yl)-2-((RS)-pyrrolidin-3-ylamino)pyrimidin-4-yl)amino)-5-(hydroxymethyl)cyclopentane-1,2-diol] | 1380
6 | Cc1cc(Nc2ncc(-c3ccc4ccccc4n3)c(N[C@@H]3CC(C(C)(C)O)[C@@H](O)[C@H]3O)n2)cc(C)n1 (stereo in doubt) [Example 111, 6-(((1R,2S,3R,4R)-2,3-dihydroxy-4-(2-hydroxypropan-2-yl)cyclopentyl)amino)-2-((2,6-dimethylpyridin-4-yl)amino)-5-(quinolin-2-yl)pyrimidine] | 0.2
7 | COc1cc(Nc2ncc(-c3ccc4ccccc4n3)c(N[C@@H]3CC(C(C)(C)O)[C@@H](O)[C@H]3O)n2)ccn1 (stereo in doubt) [Example 112, 6-(((1R,2S,3R,4R)-2,3-dihydroxy-4-(2-hydroxypropan-2-yl)cyclopentyl)amino)-2-((2-methoxypyridin-4-yl)amino)-5-(quinolin-2-yl)pyrimidine] | 4
8 | CC(C)(O)C1C[C@@H](Nc2nc(Nc3cccc(C#N)c3)ncc2-c2nc3ccccc3s2)[C@H](O)[C@@H]1O (stereo in doubt) [Example 115, 5-(benzo[d]thiazol-2-yl)-2-((3-cyanophenyl)amino)-6-(((1R,2S,3R,4R)-2,3-dihydroxy-4-(2-hydroxypropan-2-yl)cyclopentyl)amino)pyrimidine] | 36
9 | CC(C)Oc1cc(Nc2ncc(-c3nc4ccccc4s3)c(N[C@@H]3CC(C(C)(C)O)[C@@H](O)[C@H]3O)n2)ccn1 (stereo in doubt) [Example 116, 5-(benzo[d]thiazol-2-yl)-6-(((1R,2S,3R,4R)-2,3-dihydroxy-4-(2-hydroxypropan-2-yl)cyclopentyl)amino)-2-((2-isopropoxypyridin-4-yl)amino)pyrimidine] | 19
10 | COc1cccc(Nc2ncc(-c3nc4ccccc4s3)c(N[C@@H]3CC(C(C)(C)O)[C@@H](O)[C@H]3O)n2)c1 (stereo in doubt) [Example 117, 5-(benzo[d]thiazol-2-yl)-6-(((1R,2S,3R,4R)-2,3-dihydroxy-4-(2-hydroxypropan-2-yl)cyclopentyl)amino)-2-((3-methoxyphenyl)amino)pyrimidine] | 20
